# Results taken from patent US20060019967A1 (priority 2004, published 2006).
# Biological target: HCV NS3 protease (Hepatitis C virus genotype 1b, UniProt P26663)
# Type: biochemical
# Chain of HCV NS3 protease (P26663 1027-1206, other chains not shown): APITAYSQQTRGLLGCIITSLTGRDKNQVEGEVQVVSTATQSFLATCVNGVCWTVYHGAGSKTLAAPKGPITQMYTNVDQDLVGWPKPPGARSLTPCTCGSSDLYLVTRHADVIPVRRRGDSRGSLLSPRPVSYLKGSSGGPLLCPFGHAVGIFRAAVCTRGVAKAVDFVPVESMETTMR
row,Structure (SMILES),inhibition of the proteolytic activity of HCV NS3 protease
1,Cc1cc(S(=O)(=O)c2c([N+](=O)[O-])cc(C(F)(F)F)cc2[N+](=O)[O-])c(Cl)cc1Cl [Compound 1],effectively inhibited
2,CCOC(=O)/C(C#N)=C/Nc1ccc(S(=O)(=O)c2ccc(N/C=C(\C#N)C(=O)OCC)cc2)cc1 [Compound 14],effectively inhibited
3,CCOC(=O)C(=CNc1ccc(S(=O)(=O)c2ccc(NC=C(C(=O)OCC)C(=O)OCC)cc2)cc1)C(=O)OCC [Compound 20],effectively inhibited
4,O=C(CC1=NCCS1)c1cccs1 [Compound 21],effectively inhibited
5,CN(C)/C=C(/C(=O)c1cccs1)c1nnnn1-c1ccccc1 [Compound 25],effectively inhibited
